Results reported in patent US12568969B2, “Pyridine compounds for controlling invertebrate pests” (FMC Corporation, priority 2020, dated 2026).

Legend:
Assay type in all cases: in vivo
[1] = test system: diamondback moth (Plutella xylostella (L.)); assay: Test A: control of diamondback moth on mustard plant, spray; details: sprayed at 250 ppm; assessed after 6 days
Description: (§1) Test compounds were formulated using a solution containing 10% acetone, […] and 300 ppm Activator 909 non-ionic surfactant (Loveland Products, Loveland, Colorado, USA). The formulated compounds were applied in 1 mL of liquid through an atomizer nozzle positioned 1.27 cm (0.5 inches) above the top of each test unit. Test compounds were sprayed at the rates indicated, and each test was replicated three times.
For evaluating control of diamondback moth (Plutella xylostella (L.)) the test unit consisted of a small open container with a 12-14-day-old mustard plant inside. This was pre-infested with ˜50 neonate larvae that were dispensed into the test unit via corn cob grits using an inoculator. The larvae moved onto the test plant after being dispensed into the test unit.
Test compounds were formulated and sprayed at 250 ppm. After spraying of the formulated test compound, each test unit was allowed to dry for 1 hour and then a black, screened cap was placed on top. The test units were held for 6 days in a growth chamber at 25° C. and 70% relative humidity. Plant feeding damage was then visually assessed based on foliage consumed, and larvae were assessed for mortality.

[2] = test system: corn planthopper (Peregrinus maidis (Ashmead)); assay: whole plant or invertebrate; details: Peregrinus maidis, 144 h, 6 days; for mortality at 10 ppm: sprayed at 10 ppm; for mortality at 50 ppm: sprayed at 50 ppm; for mortality at 250 ppm: sprayed at 250 ppm
Description: as §1
For evaluating control of corn planthopper (Peregrinus maidis (Ashmead)) through contact and/or systemic means, the test unit consisted of a small open container with a 3-4-day-old corn (maize) plant inside. White sand was added to the top of the soil prior to application of the test compound.
Test compounds were formulated and sprayed at 250 and/or 50 ppm and/or 10 ppm. After spraying of the formulated test compound, the test units were allowed to dry for 1 h before they were post-infested with ˜15-20 nymphs (18-to-21-day-old). A black, screened cap was placed on the top of each test unit, and the test units were held for 6 days in a growth chamber at 22-24° C. and 50-70% relative humidity. Each test unit was then visually assessed for insect mortality.

[3] = test system: cotton melon aphid (Aphis gossypii (Glover)); assay: whole plant or invertebrate; details: Aphis gossypii, 144 h, 6 days; for mortality at 50 ppm: sprayed at 50 ppm; for mortality at 250 ppm: sprayed at 250 ppm
Description: as §1
[…] This was pre-infested with 30-40 insects on a piece of leaf according to the cut-leaf method, and the soil of the test unit was covered with a layer of sand.
Test compounds were formulated and sprayed at 250 and/or 50 ppm. After spraying, the test units were maintained in a growth chamber for 6 days at 19° C. and 70% relative humidity. Each test unit was then visually assessed for insect mortality.

[4] = test system: green peach aphid (Myzus persicae (Sulzer)); assay: Test D: control of green peach aphid on radish plant, spray; details: Myzus persicae, 144 h, 6 days; for mortality at 50 ppm: sprayed at 50 ppm; for mortality at 250 ppm: sprayed at 250 ppm
Description: as §1
For evaluating control of green peach aphid (Myzus persicae (Sulzer)) through contact and/or systemic means, the test unit consisted of a small open container with a 12-15-day-old radish plant inside. This was pre-infested by placing on a leaf of the test plant 30-40 aphids on a piece of leaf excised from a culture plant (cut-leaf method). The aphids moved onto the test plant as the leaf piece desiccated. After pre-infestation, the soil of the test unit was covered with a layer of sand.
[…] After spraying of the formulated test compound, each test unit was allowed to dry for 1 hour and then a black, screened cap was placed on top. The test units were held for 6 days in a growth chamber at 19-21° C. and 50-70% relative humidity. Each test unit was then visually assessed for insect mortality.

[5] = test system: sweetpotato whitefly (Bemisia tabaci (Gennadius)); assay: Test F: control of sweetpotato whitefly on cotton plant, spray; details: 312 h, 13 days; for mortality at 50 ppm: sprayed at 50 ppm; for mortality at 250 ppm: sprayed at 250 ppm
Description: as §1
For evaluating control of the sweetpotato whitefly (Bemisia tabaci (Gennadius)) through contact and/or systemic means, the test unit consisted of a small open container with a 12-14-day-old cotton plant inside. Prior to the spray application, both cotyledons were removed from the plant, leaving one true leaf for the assay. Adult whiteflies were allowed to lay eggs on the plant and then were removed from the test unit. Cotton plants infested with at least 15 eggs were submitted to the test for spraying.
Test compounds were formulated and sprayed at 250 and/or 50 ppm. After spraying, the test units were allowed to dry for 1 hour. The cylinders were then removed, and the units were taken to a growth chamber and held for 13 days at 28° C. and 50-70% relative humidity. Each test unit was then visually assessed for insect mortality.

Row | SMILES | control efficacy (40% or less feeding damage and/or 100% mortality) [1] | mortality at 50 ppm [2] [%] | mortality at 250 ppm [2] [%] | mortality at 50 ppm [3] [%] | mortality at 250 ppm [3] [%] | also measured
1 | Cc1noc(-c2cncc(Cl)c2C(F)c2ccc([S+]([O-])C(F)(F)F)cc2)n1 (mixture of isomers) [Compound 104] | very good to excellent levels of control efficacy | – | – | – | – | –
2 | Cc1noc(-c2cncc(F)c2C(F)c2ccc(OC(F)(F)F)cc2)n1 (racemic) [Compound 39] | very good to excellent levels of control efficacy | – | – | – | – | –
3 | FC(c1ccc(OC(F)(F)F)cc1)c1c(C2CC2)cncc1-n1nccn1 (racemic) [Compound 53] | very good to excellent levels of control efficacy | – | – | – | – | –
4 | Cc1noc(-c2cncc(Cl)c2C(F)c2ccc(SC(F)(F)F)cc2)n1 (racemic) [Compound 103] | very good to excellent levels of control efficacy | – | – | – | – | –
5 | COC(c1ccc(SC(F)(F)F)cc1)c1c(Cl)cncc1-n1nccn1 (single isomer, unassigned) [Compound 130] | very good to excellent levels of control efficacy | ≥ 80 | ≥ 80 | ≥ 80 | ≥ 80 | mortality at 10 ppm [2]: ≥ 80%; mortality at 50 ppm [4]: ≥ 80%; mortality at 250 ppm [4]: ≥ 80%
6 | Fc1cncc(-n2cncn2)c1C(F)c1ccc(C(F)(F)F)cc1 (stereo not drawn) [Compound 18] | very good to excellent levels of control efficacy | ≥ 80 | ≥ 80 | – | – | mortality at 50 ppm [4]: ≥ 80%; mortality at 250 ppm [4]: ≥ 80%
7 | Fc1cncc(-n2nccn2)c1C(F)c1ccc(C(F)(F)F)cc1 (stereo not drawn) [Compound 20] | very good to excellent levels of control efficacy | ≥ 80 | ≥ 80 | ≥ 80 | ≥ 80 | mortality at 50 ppm [4]: ≥ 80%; mortality at 250 ppm [4]: ≥ 80%
8 | Fc1cncc(-c2ccco2)c1C(F)c1ccc(OC(F)(F)F)cc1 (stereo not drawn) [Compound 22] | very good to excellent levels of control efficacy | ≥ 80 | ≥ 80 | ≥ 80 | ≥ 80 | mortality at 10 ppm [2]: ≥ 80%; mortality at 250 ppm [4]: ≥ 80%
9 | Fc1cncc(-c2ccoc2)c1C(F)c1ccc(OC(F)(F)F)cc1 (stereo not drawn) [Compound 23] | very good to excellent levels of control efficacy | ≥ 80 | ≥ 80 | – | – | mortality at 250 ppm [4]: ≥ 80%
10 | Fc1cncc(-c2nnco2)c1C(F)c1ccc(OC(F)(F)F)cc1 (stereo not drawn) [Compound 30] | very good to excellent levels of control efficacy | ≥ 80 | ≥ 80 | – | – | mortality at 10 ppm [2]: ≥ 80%; mortality at 250 ppm [4]: ≥ 80%
11 | Fc1cncc(-c2cnco2)c1C(F)c1ccc(OC(F)(F)F)cc1 (stereo not drawn) [Compound 34] | very good to excellent levels of control efficacy | ≥ 80 | ≥ 80 | ≥ 80 | ≥ 80 | mortality at 50 ppm [4]: ≥ 80%; mortality at 250 ppm [4]: ≥ 80%
12 | Fc1cncc(-c2cccs2)c1C(F)c1ccc(OC(F)(F)F)cc1 (stereo not drawn) [Compound 45] | very good to excellent levels of control efficacy | ≥ 80 | – | ≥ 80 | ≥ 80 | mortality at 10 ppm [2]: ≥ 80%
13 | N#Cc1cncc(-n2nccn2)c1C(F)c1ccc(OC(F)(F)F)cc1 (stereo not drawn) [Compound 48] | very good to excellent levels of control efficacy | ≥ 80 | – | – | – | mortality at 10 ppm [2]: ≥ 80%; mortality at 50 ppm [4]: ≥ 80%; mortality at 250 ppm [4]: ≥ 80%
14 | FC(c1ccc(OC(F)(F)F)cc1)c1c(Cl)cncc1-c1ncco1 (stereo not drawn) [Compound 51] | very good to excellent levels of control efficacy | ≥ 80 | – | ≥ 80 | ≥ 80 | mortality at 10 ppm [2]: ≥ 80%
15 | CCn1nccc1-c1cncc(F)c1C(F)c1ccc(OC(F)(F)F)cc1 (stereo not drawn) [Compound 55] | very good to excellent levels of control efficacy | ≥ 80 | – | – | – | –
16 | Cn1ccc(-c2cncc(F)c2C(F)c2ccc(OC(F)(F)F)cc2)n1 (stereo not drawn) [Compound 59] | very good to excellent levels of control efficacy | – | – | – | ≥ 80 | –
17 | FC(c1ccc(OC(F)(F)F)cc1)c1c(Cl)cncc1-c1cnco1 (stereo not drawn) [Compound 60] | very good to excellent levels of control efficacy | – | – | – | ≥ 80 | –
18 | Fc1cncc(-c2cnco2)c1C(F)c1ccc(SC(F)(F)F)cc1 (stereo not drawn) [Compound 100] | very good to excellent levels of control efficacy | – | – | ≥ 80 | ≥ 80 | –
19 | FC(c1ccc(SC(F)(F)F)cc1)c1c(Cl)cncc1-c1cnco1 (stereo not drawn) [Compound 105] | very good to excellent levels of control efficacy | ≥ 80 | ≥ 80 | ≥ 80 | ≥ 80 | –
20 | COC(c1ccc(SC(F)(F)F)cc1)c1c(I)cncc1-n1nccn1 (stereo not drawn) [Compound 120] | very good to excellent levels of control efficacy | ≥ 80 | ≥ 80 | – | – | mortality at 50 ppm [5]: ≥ 70%; mortality at 250 ppm [5]: ≥ 70%
21 | COC(c1ccc(SC(F)(F)F)cc1)c1c(Br)cncc1-n1nccn1 (stereo not drawn) [Compound 133] | very good to excellent levels of control efficacy | – | – | ≥ 80 | ≥ 80 | mortality at 50 ppm [5]: ≥ 70%; mortality at 250 ppm [5]: ≥ 70%
22 | FC(c1ccc2c(c1)OC(F)(F)O2)c1c(Br)cncc1-n1nccn1 (stereo not drawn) [Compound 147] | very good to excellent levels of control efficacy | – | – | – | – | –
23 | COC(c1ccc2c(c1)OC(F)(F)O2)c1c(F)cncc1-n1cccn1 (stereo not drawn) [Compound 155] | very good to excellent levels of control efficacy | – | – | – | – | –
24 | Fc1cncc(-n2cccn2)c1C(F)c1cnc(C(F)(F)F)nc1 (stereo not drawn) [Compound 162] | very good to excellent levels of control efficacy | – | – | – | – | –
25 | Fc1cncc(-n2nccn2)c1C(F)c1ccc(Br)nc1 (stereo not drawn) [Compound 166] | very good to excellent levels of control efficacy | – | – | – | – | –
26 | Fc1cncc(-n2cccn2)c1C(F)c1ccc(C(F)(F)F)cn1 (stereo not drawn) [Compound 171] | very good to excellent levels of control efficacy | – | – | – | – | –
27 | Fc1cncc(-n2nccn2)c1C(F)c1ccc(C(F)(F)F)cn1 (stereo not drawn) [Compound 172] | very good to excellent levels of control efficacy | – | – | – | – | –
28 | COC(c1ccc(OC(F)(F)F)cc1)c1ncncc1-n1nccn1 (stereo not drawn) [Compound 175] | very good to excellent levels of control efficacy | – | – | – | – | –
